Test system: L5/L6 spinal nerve ligation (SNL) rats
Test: Tactile allodynia (von Frey) in spinal nerve ligation model
Assay type: in vivo, rat
Procedure: (A) L5/L6 spinal nerve ligation (SNL) was performed as described by Kim and Chung (Pain, 50,355-363(1992)). Animals (mice or rats) were anesthetized with halothane. An incision was made lateral to the lumbar spine. The right L5 and L6 spinal nerves were isolated and tightly ligated distal to the dorsal root ganglion. The incision was closed, and animals were allowed to recover for 10 days. Sham-operated animals were prepared in an identical fashion except that the spinal nerves were not ligated.
The protocol was repeated until three changes in behavior were determined. The maximal cut-off size values used were 15 g for rats and 3.5 g for mice. The 50% paw withdrawal threshold was determined as 10Xf+kδ/10,000, where Xf=the value of the last von Frey filament used, k=Dixon value for the positive/negative pattern, and δ=the logarithmic difference between stimuli.
Tactile allodynia response was measured 15, 30, 45, 60, 90 and 120 minutes after i.p. administration of ganaxolone (at 1 mg/kg, 3 mg/kg, 6 mg/kg or 10 mg/kg). Table 2 provides the resulting measurement of tactile allodynia response in groups of five rats per dosage level.

CC(=O)[C@H]1CC[C@H]2[C@@H]3CC[C@H]4C[C@](C)(O)CC[C@]4(C)[C@H]3CC[C@]12C [ganaxolone, 3α-hydroxy-3β-methyl-5α-pregnan-20-one]
% Activity ± s.e.m. (tactile allodynia) (1 mg/kg i.p., 15 min, SNL rats): 2.83 ± 2.83%
% Activity ± s.e.m. (tactile allodynia) (1 mg/kg i.p., 30 min, SNL rats): 6.35 ± 3.38%
% Activity ± s.e.m. (tactile allodynia) (1 mg/kg i.p., 45 min, SNL rats): 3.20 ± 2.21%
% Activity ± s.e.m. (tactile allodynia) (1 mg/kg i.p., 60 min, SNL rats): 2.41 ± 1.53%
% Activity ± s.e.m. (tactile allodynia) (1 mg/kg i.p., 90 min, SNL rats): 2.41 ± 1.53%
% Activity ± s.e.m. (tactile allodynia) (1 mg/kg i.p., 120 min, SNL rats): 3.06 ± 3.06%
% Activity ± s.e.m. (tactile allodynia) (3 mg/kg i.p., 15 min, SNL rats): 9.69 ± 4.56%
% Activity ± s.e.m. (tactile allodynia) (3 mg/kg i.p., 30 min, SNL rats): 13.76 ± 6.54%
% Activity ± s.e.m. (tactile allodynia) (3 mg/kg i.p., 45 min, SNL rats): 14.02 ± 5.14%
% Activity ± s.e.m. (tactile allodynia) (3 mg/kg i.p., 60 min, SNL rats): 11.56 ± 3.01%
% Activity ± s.e.m. (tactile allodynia) (3 mg/kg i.p., 90 min, SNL rats): 9.19 ± 2.67%
% Activity ± s.e.m. (tactile allodynia) (3 mg/kg i.p., 120 min, SNL rats): 9.64 ± 1.63%
% Activity ± s.e.m. (tactile allodynia) (6 mg/kg i.p., 15 min, SNL rats): 26.79 ± 9.34%
% Activity ± s.e.m. (tactile allodynia) (6 mg/kg i.p., 30 min, SNL rats): 30.85 ± 6.77%
% Activity ± s.e.m. (tactile allodynia) (6 mg/kg i.p., 45 min, SNL rats): 47.30 ± 14.99%
% Activity ± s.e.m. (tactile allodynia) (6 mg/kg i.p., 60 min, SNL rats): 34.17 ± 15.78%
% Activity ± s.e.m. (tactile allodynia) (6 mg/kg i.p., 90 min, SNL rats): 26.91 ± 15.45%
% Activity ± s.e.m. (tactile allodynia) (6 mg/kg i.p., 120 min, SNL rats): 9.32 ± 2.85%
% Activity ± s.e.m. (tactile allodynia) (10 mg/kg i.p., 15 min, SNL rats): 47.91 ± 21.86%
% Activity ± s.e.m. (tactile allodynia) (10 mg/kg i.p., 30 min, SNL rats): 79.27 ± 18.71%
% Activity ± s.e.m. (tactile allodynia) (10 mg/kg i.p., 45 min, SNL rats): 70.60 ± 18.42%
% Activity ± s.e.m. (tactile allodynia) (10 mg/kg i.p., 60 min, SNL rats): 64.61 ± 18.63%
% Activity ± s.e.m. (tactile allodynia) (10 mg/kg i.p., 90 min, SNL rats): 24.81 ± 9.53%
% Activity ± s.e.m. (tactile allodynia) (10 mg/kg i.p., 120 min, SNL rats): 4.38 ± 1.81%
Sedation (10 mg/kg i.p., SNL rats, tactile allodynia test): sedated four of the five rats for about one hour
Effect on % Activity (summary, SNL animals): increases the % Activity

— patent US20060009432A1, “Use of neurosteroids to treat neuropathic pain” (priority 2004, published 2006)
